# Assays:
# [1] = tested on: post-surgery liver metastasis of colorectal cancer; assay: Case of a terminal colorectal cancer patient with post-surgery liver metastasis (Example 1); assay type: in vivo, human
# Protocol: Post-surgery liver metastasis was confirmed in the terminal colorectal cancer patient.
# Starting in March 2014 (Mar-14), Bestatin […]) was administered alone every day.
# [2] = tested on: post-surgery multiple lung metastases of thyroid gland cancer; assay: Case of a patient with post-surgery multiple lung metastases of thyroid gland cancer (Example 2); assay type: in vivo, human
# Protocol: Multiple lung metastases were confirmed in a thyroid gland cancer patient and the platelet count and the neutrophil count in peripheral blood both increased. In December 2013 (Dec-13), the […] to neutrophil count ratio (NLR) in peripheral blood was more than 5, indicating poor prognosis.
# Starting in March 2014 (Mar-14), Bestatin (10 mg/day) was administered alone every day.
# [3] = tested on: post-surgery recurrence of non-small cell lung cancer; assay: Case of a patient with post-surgery recurrence of non-small cell lung cancer (Example 3); assay type: in vivo, human; conditions: Bestatin 10 mg/day alone every day from Jan-14
# Protocol: The non-small cell lung cancer patient received lung right upper lobectomy, then immunotherapy, but enlargement of the right cervical lymph node was confirmed (September 2012 (Sep-12)). Subsequently, the elevation of CEA levels in peripheral blood was confirmed.
# Starting in January 2014 (Jan-14), Bestatin (10 mg/day) was administered alone every day.
# [4] = tested on: A549 human lung carcinoma; assay: Antitumor effect of Bestatin and gefitinib in A549 cancer-bearing mice (Example 15); assay type: in vivo, BALB/c nu/nu mice; conditions: po, qd, 6 days/week x 3 weeks
# Protocol: • [1] Production of Cancer-Bearing Mouse
# A549 human lung carcinoma suspension (5×10^6 cells/100 μL PBS) was subcutaneously inoculated to BALB/c nu/nu mice (female). After cells were transplanted, mice with a tumor volume reaching about 117 mm^3 (on day 15 after the cell transplantation) were used for the following in vivo experiments, • [2] Evaluation of Antitumor Effects Attained by Combination of Bestatin and Gefitinib
# Bestatin and gefitinib were respectively administered by the following doses, administration route and schedule to the above A549 cancer-bearing mice.
# The antitumor effect was examined based on changes in tumor volume and changes in body weight.
# The tumor volume was calculated by the following formula.
# Tumor volume (mm^3)=(long side of tumor)×(short side of tumor)^2×0.5
# Tumor growth inhibition (TGI) was also calculated from the tumor volume by the following formula.
# [5] = Bestatin 10 mg/day alone every day from Mar-14
# [6] = Bestatin 10 mg/day alone every day, May-14, two months after start
smiles,measurement,setting,value
"CC(C)C[C@H](NC(=O)[C@@H](O)[C@H](N)Cc1ccccc1)C(=O)O [Bestatin, (2S)-2-[(2S,3R)-3-amino-2-hydroxy-4-phenylbutanoylamino]-4-methylpentanoic acid]",platelet count in peripheral blood,[1]; [5],started decreasing
same,tumor marker CA19-9 level in peripheral blood,[1]; [6],started decreasing
same,tumor marker CEA level in peripheral blood,[1]; [6],started decreasing
same,CEA level after Bestatin administration was stopped,[1]; administration stopped Jul-14,quickly elevated again
same,platelet count in peripheral blood after Bestatin administration was stopped,[1]; administration stopped Jul-14,quickly elevated again
same,Lymphocyte in peripheral blood,"[2]; 2014 Jul. 15 (After administration), Bestatin 10 mg/day alone, before administration 8%",22%
same,Neutrophil in peripheral blood,"[2]; 2014 Jul. 15 (After administration), Bestatin 10 mg/day alone, before administration 83%",55%
same,Leukocyte in peripheral blood,"[2]; 2014 Jul. 15 (After administration), Bestatin 10 mg/day alone, before administration (2014 Jan. 10) 9500",4900
same,neutrophil count in peripheral blood,[2]; [5],drops
same,platelet count in peripheral blood,[2]; [5],drops
same,CEA level in peripheral blood,[3],drop
same,TGI (%) On day 40,[4]; G3: Bestatin 30 mg/kg alone,39%
COc1cc2ncnc(Nc3ccc(F)c(Cl)c3)c2cc1OCCCN1CCOCC1 [gefitinib],TGI (%) On day 40,[4]; G2: gefitinib 10 mg/kg alone,31%
